Results reported in patent publication US20190119300A1, “SUBSTITUTED AND FUSED 6-MEMBERED PROTEASE ACTIVATED RECEPTOR 4 (PAR-4) ANTAGONISTS” (Vanderbilt University, priority 2016, published 2019).

Assays:
PAR-4 [1] = target: T1, PAR-4 (Homo sapiens, UniProt Q96RI0); assay: PAC-1 binding assay, washed platelets stimulated with PAR-4-AP (flow cytometry); format: cell-based; settings: PAR-4-AP stimulation; for remaining activity at 10 µM: 10 μM antagonist, 100% = DMSO control stimulated, read-out: PAR-4 AP % Max PAC-1 binding (10 μM); for IC50: read-out: PAR-4 AP % Max PAC-1 binding (IC50 [M])
T1 construct: endogenous in cells; host or cells: washed platelets
T1 sequence (Q96RI0 18-385): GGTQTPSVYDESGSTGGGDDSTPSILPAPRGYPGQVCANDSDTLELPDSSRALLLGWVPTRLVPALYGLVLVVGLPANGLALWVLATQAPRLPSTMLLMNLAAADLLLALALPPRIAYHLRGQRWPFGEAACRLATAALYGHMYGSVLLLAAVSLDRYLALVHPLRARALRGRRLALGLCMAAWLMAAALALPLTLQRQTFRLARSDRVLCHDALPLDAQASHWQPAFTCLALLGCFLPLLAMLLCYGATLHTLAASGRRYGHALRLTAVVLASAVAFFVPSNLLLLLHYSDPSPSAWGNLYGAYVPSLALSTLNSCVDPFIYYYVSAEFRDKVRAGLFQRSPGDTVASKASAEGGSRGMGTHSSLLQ
Protocol: (§1) PAC-1 Binding assay: 60 μL of washed platelets (Tyrodes buffer containing 0.1% BSA) at a concentration of 0.15×10^8 platelets/mL were added to 5 mL round bottom polystyrene tubes (BD, Franklin Lakes, N.J.). FITC conjugated PAC-1 (BD Biosciences, San Jose, Calif.) antibody was diluted (to the manufacturers recommended concentration) in Tyrode's buffer containing 0.1% BSA. 40 μL of diluted antibody was added to the platelets and allowed to incubate for 5 minutes. Platelets were pre-treated with indicated concentrations of antagonist or DMSO control for 20 minutes (the final DMSO concentration was 0.5%) followed by addition of PAR-1-AP (GL Biochem, Shanghai, China), PAR-4-AP, or gamma-thrombin for 10 minutes. Platelet activity was quenched by the addition ice cold 1.5% paraformaldehyde followed by dilution in 1× phosphate buffered saline. Platelets were stored up to 18 hours at 4° C. before flow cytometric analysis. Analysis was carried out on a BD FACS Canto II or BD LSRII (Franklin Lakes, N.J.). Fluorescent intensity was determined for at least 20,000 events within the platelet gate (forward scatter versus side scatter). Data was collected and analyzed via FACS DiVa or FlowJo software. Flow cytometric data analysis was conducted by the following method. The DMSO-vehicle treated control was subtracted from each data point. 100% response for PAR-4-AP was determined for each individual as the DMSO treated control stimulated with PAR-4-AP, PAR-1-AP, or gamma-thrombin. Data was plotted in GraphPad PRISM v.5.0. For compounds with a notable reduction in PAC-1 binding response, dose response curves and IC50 values were generated using the inhibitory sigmoidal dose response ‘variable slope’ parameter. Results were plotted as mean±SEM.

PAR-4 [2] = target: T1, PAR-4; assay: PAC-1 binding assay, washed platelets stimulated with 100 nM gamma-thrombin (flow cytometry); format: cell-based; settings: 100 nM γ-thrombin stimulation
Excerpt: Gamma-thrombin is a proteolytic product of alpha-thrombin cleavage by a serine protease. Cleavage results in the disruption of exosite I which interacts directly with the hirudin-like domain of its primary substrates fibrinogen and protease-activated receptor 1 (PAR1). […] See Soslau, G., Class, R., Morgan, D. A., Foster, C., Lord, S. T., Marchese, P., and Ruggeri, Z. M. (2001) Unique pathway of thrombin-induced platelet aggregation mediated by glycoprotein Ib, The Journal of biological chemistry 276, 21173-21183. Gamma-thrombin (Enzyme Research Laboratories, South Bend, Indiana) is produced by trypsin-sepharose cleavage of alpha-thrombin. To neutralize alpha-thrombin contamination, stock solutions of gamma-thrombin are preincubated with 1 unit/mL hirudin prior 100 fold dilution into the sample for platelet stimulation. […] Single point screens and concentration response curves are conducted with 316 nanomolar or 100 nanomolar gamma-thrombin using PAC1 and CD62p binding.
as §1

Row | remaining activity at 10 µM (PAR-4 [1]) | IC50 (PAR-4 [1]) | IC50 (PAR-4 [2]) | Compound
1 | 99.5% | – | – | Clc1cccc(-c2cn3nc(OC4CCCC4)sc3n2)c1 [Example B38]
2 | 2.21% | 6.48e-07 M | – | CCOc1nn2cc(-c3ccc(C(F)(F)F)cc3)nc2s1 [Example B39]
3 | 81.5% | – | – | CC(C)Oc1nn2cc(-c3ccc(C(F)(F)F)cc3)nc2s1 [Example B40]
4 | 102% | – | – | CC(C)COc1nn2cc(-c3ccc(C(F)(F)F)cc3)nc2s1 [Example B41]
5 | 114% | – | – | FC(F)(F)c1ccc(-c2cn3nc(OC4CCCC4)sc3n2)cc1 [Example B42]
6 | 0.91% | 1.33e-06 M | – | COc1nn2cc(-c3ccc(OCc4csc(-c5ccccc5)n4)cc3)nc2s1 [Example B43, 2-Methoxy-6-(4-((2-phenylthiazol-4-yl)methoxy)phenyl)imidazo[2,1-b][1,3,4]thiadiazole]
7 | 93.7% | – | – | CC(C)COc1nn2cc(-c3c(F)cccc3F)nc2s1 [Example B44]
8 | 48.1% | – | – | COc1nn2cc(-c3ccc4ncn(C)c4c3)nc2s1 [Example B45]
9 | 10.4% | – | – | COc1nn2cc(-c3ccc(N4CCOCC4)cc3)nc2s1 [Example B46]
10 | -0.27% | 4.32e-08 M | ≥ 1000 nM | COc1nn2cc(-c3cccc(OCc4csc(-c5ccccc5)n4)c3)nc2s1 [Example B47]
11 | 96% | – | – | COc1nn2cc(-c3ccccc3OCc3csc(-c4ccccc4)n3)nc2s1 [Example B48]
12 | 17.1% | > 1e-06 M | – | COc1nn2cc(-c3ccccc3[N+](=O)[O-])nc2s1 [Example B49]
13 | 6.82% | > 1e-06 M | – | COc1nn2cc(-c3cccc([N+](=O)[O-])c3)nc2s1 [Example B50]
14 | 72.7% | – | – | COc1nn2cc(-c3ccc(-c4ccccc4)cc3)nc2s1 [Example B51]
15 | 0.063% | 4.06e-07 M | – | COc1nn2cc(-c3ccc(F)cc3)nc2s1 [Example B52]
16 | -0.071% | 2.91e-07 M | – | COc1cccc(-c2cn3nc(OC)sc3n2)c1 [Example B53]
17 | 20.7% | 7.75e-08 M | > 1000 nM | COc1nn2cc(-c3ccc4sccc4c3)nc2s1 [Example B54]

Further lines, the compound ahead of its results:

Row | Compound | remaining activity at 10 µM (PAR-4 [1]) | IC50 (PAR-4 [1]) | IC50 (PAR-4 [2])
18 | COc1nn2cc(-c3ccc(C(F)(F)F)cc3)nc2s1 [Example B1] | -1.91% | – | –
19 | COc1nn2cc(-c3ccccc3C(F)(F)F)nc2s1 [Example B2] | -0.14% | 1.33e-06 M | –
20 | COc1nn2cc(-c3cccc(C(F)(F)F)c3)nc2s1 [Example B3] | -0.26% | – | –
21 | COc1nn2cc(-c3c(F)cccc3F)nc2s1 [Example B4] | 1.29% | – | –
22 | COc1nn2cc(-c3ccc(F)cc3F)nc2s1 [Example B5] | 0.21% | 1.75e-07 M | –
23 | COc1nn2cc(-c3ccc(Br)cc3F)nc2s1 [Example B6] | 2.82% | 1.96e-07 M | –
24 | COc1nn2cc(-c3cccc(F)c3)nc2s1 [Example B7] | 1.47% | 6.85e-07 M | –
25 | COc1nn2cc(-c3ccccc3)nc2s1 [Example B8] | 1.48% | 7.08e-07 M | –
26 | COc1nn2cc(-c3ccc(Oc4ccccc4)cc3)nc2s1 [Example B9] | -0.09% | 1.43e-07 M | –
27 | COc1ccc(-c2cn3nc(OC)sc3n2)cc1 [Example B10] | -1.59% | 6.25e-07 M | –
28 | COc1nn2cc(-c3ccc(S(C)(=O)=O)cc3)nc2s1 [Example B11] | 4.19% | 1.09e-06 M | –
29 | COc1nn2cc(-c3ccc(C)cc3)nc2s1 [Example B12, 2-methoxy-6-(p-tolyl)imidazo[2,1-b][1,3,4]thiadiazole] | 1.78% | 5.2e-08 M | > 1000 nM
30 | COc1nn2cc(-c3ccc(O)cc3O)nc2s1 [Example B13] | 98.4% | – | –
31 | COc1nn2cc(-c3ccccc3O)nc2s1 [Example B14] | 92.7% | – | –
32 | COc1nn2cc(-c3ccccc3OC)nc2s1 [Example B15] | 8.45% | 3.95e-06 M | –
33 | COc1nn2cc(-c3ccc(O)cc3)nc2s1 [Example B16] | 91.2% | – | –
34 | COc1nn2cc(-c3ccc(C#N)cc3)nc2s1 [Example B17] | 0.93% | 8.95e-07 M | –
35 | COc1nn2cc(-c3ccccn3)nc2s1 [Example B18] | 18.6% | 2.22e-05 M | –
36 | COc1nn2cc(-c3ccc(Cl)cc3)nc2s1 [Example B19] | 0.02% | – | –

Row | Compound | remaining activity at 10 µM (PAR-4 [1]) | IC50 (PAR-4 [1]) | IC50 (PAR-4 [2])
37 | COc1nn2cc(-c3ccc(Cl)c(Cl)c3)nc2s1 [Example B20] | -0.92% | – | –
38 | COc1nn2cc(-c3ccccc3Cl)nc2s1 [Example B21] | 0.74% | 4.54e-07 M | –
39 | COc1nn2cc(-c3cccnc3)nc2s1 [Example B22] | 81.3% | – | –
40 | COc1nn2cc(-c3cccc(Cl)c3)nc2s1 [Example B23] | -1.07% | 6.9e-08 M | > 1000 nM
41 | COc1nn2cc(-c3ccc(-c4cccs4)cc3)nc2s1 [Example B24] | 3.35% | 1.63e-07 M | –
42 | COc1nn2cc(-c3cc(C(F)(F)F)cc(C(F)(F)F)c3)nc2s1 [Example B25] | -0.34% | 5.23e-08 M | > 1000 nM
43 | COc1nn2cc(-c3ccc(Cl)c([N+](=O)[O-])c3)nc2s1 [Example B26] | 1.52% | 9.95e-08 M | –
44 | COc1nn2cc(-c3ccc(OC(F)(F)F)cc3)nc2s1 [Example B27] | -0.2% | – | –
45 | COc1nn2cc(-c3ccc(OC(F)F)cc3)nc2s1 [Example B28] | -0.21% | 8.34e-08 M | > 1000 nM
46 | COc1nn2cc(-c3ccc(F)c(C(F)(F)F)c3)nc2s1 [Example B29] | -0.45% | – | –
47 | COc1nn2cc(-c3ccccc3F)nc2s1 [Example B30] | -0.14% | 5.26e-07 M | –
48 | COc1nn2cc(-c3ccc([N+](=O)[O-])cc3)nc2s1 [Example B31] | 1.6% | 2.07e-07 M | –
49 | CCOc1nn2cc(-c3c(F)cccc3F)nc2s1 [Example B32] | 3.47% | 1.17e-06 M | –
50 | CC(C)Oc1nn2cc(-c3c(F)cccc3F)nc2s1 [Example B33] | 102% | – | –
51 | Fc1cccc(F)c1-c1cn2nc(OC3CCCC3)sc2n1 [Example B34] | 109% | – | –
52 | CCOc1nn2cc(-c3cccc(Cl)c3)nc2s1 [Example B35] | 2.31% | 1.24e-06 M | –
53 | CC(C)Oc1nn2cc(-c3cccc(Cl)c3)nc2s1 [Example B36] | 63.2% | – | –
54 | CC(C)COc1nn2cc(-c3cccc(Cl)c3)nc2s1 [Example B37] | 97.3% | – | –
